# “Also recorded” adds a separate entry of the source.
# Columns and labels:
# [1] = tested on: cd41:eGFP+ HSCs emerging from flk1:mCherry+ endothelial cells; test: Time-lapse confocal imaging of cd41:eGFP+ HSCs emerging from flk1:mCherry+ endothelial cells in transgenic embryos; format: in vivo, zebrafish; settings: 26-42 hpf
# Procedure: Mice were purchased Cd45.2 (C57BL6/J) and Cd45.1 (SJL) from The Jackson Laboratory and zebrafish morpholinos from GeneTools. Microangiography was performed by injecting fluorescent-labeled dextran dye in the atrium of zebrafish heart and its passage was recorded using live imaging. Immunostaining of zebrafish heart and mouse AGM were analyzed using an inverted fluorescent microscope. Cardiac tamponade, heart rate, and pulse frequency were analyzed in zebrafish embryos using bright field imaging or time-lapse confocal microscopy. The movement of red blood cells in blood vessels was analyzed as well as the endothelial-to-HSC transition in zebrafish transgenic embryos using time-lapse confocal imaging.
# Zebrafish embryos were treated with the following chemical modulators in E3 fish media: 100 uM L-NAME (Fisher Scientific), 50 uM Digitoxigenin (Sigma), 25-50 uM Yoda1 (Cayman Chemical), 1 uM Nanaomycin (Nana; Fisher Scientific), 100 uM Gadolinium chloride (GdCl3; Sigma), 5-10 uM 4α-phorbol 12, 13-didecanaote (4Apdd; Sigma), or GSK205 (10 uM).
# cd41: eGFP were crossed with flk1:mCherry zebrafish and flk1:mCherry with lcr:eGFP zebrafish and injected morpholino in their transgenic embryos. Transgenic embryos were mounted in low-melting-point agarose and a spinning-disk confocal microscope was used to perform time-lapse confocal imaging of cd41:eGFP^+ HSCs emerging from flk1^+ endothelium from 30 to 42 hpf. The relative movement of lcr:eGFP^+ red blood cells was analyzed in the context of flk1:mCherry^+ endothelium. We performed image analysis using IMARIS (Bitplane) software.
# [2] = tested on: bone marrow-derived Gr1+Mac1+ sorted (donor) neutrophils; test: ELISA quantification of myeloperoxidase (MPO) in donor neutrophils of primary transplant; format: in vivo, mouse; settings: overnight culture; primary transplant of treated E11.5 AGM
# Procedure: (§1) Pulsating blood vessels like conditions were stimulated in vitro using FLEXCELL FX-4000 cell stretching bioreactor machine. To analyze roles of pharmacological targets in regulating the endothelial-to-HSC transition, mouse embryo-derived AGM or whole mouse embryo were exposed ex vivo with biomechanical stretching, chemicals, or drugs. Next, hematopoietic colony formation assays were performed by incubating mouse AGM-derived cells in StemCell M3434 media for seven days. Serial transplantation of AGM-derived HSCs in lethally irradiated SJL mice were performed. The stem cell frequency upon biomechanical stretching was analyzed using a limiting dilution assay. To characterize properties of AGM-HSC-derived blood cells in primary transplants, percentage chimerism and reconstitution was measured using FACS, globin transcripts were analyzed using quantitative reverse transcriptase-PCR, myeloperoxidase amount was measured using PICOKINE ELISA kit, TCR-β rearrangement was analyzed using PCR for TCR-β locus, pre-immune IG detection was analyzed using Thermo-Fisher Mouse Ig Isotyping kit, and delayed-type hypersensitivity was analyzed by injecting sheep RBC (Rockland Immunochemicals) in the footpad of pre-sensitized mice. […]
# [3] = tested on: spleen-sorted Cd3+ T cells (donor); test: PCR assay for TCR-β rearrangement in donor T cells of primary transplant; format: in vivo, mouse; settings: primary transplant of treated E11.5 AGM; Mac1+ myeloid cells negative control
# Procedure: Pulsating blood vessels like conditions were stimulated in vitro using FLEXCELL FX-4000 cell stretching bioreactor machine. To analyze roles of pharmacological targets in regulating the endothelial-to-HSC transition, mouse embryo-derived AGM or whole mouse embryo were exposed ex vivo with biomechanical stretching, chemicals, or drugs. Next, hematopoietic colony formation assays were performed by incubating mouse AGM-derived cells in StemCell M3434 media for seven days. Serial transplantation of AGM-derived HSCs in lethally irradiated SJL mice were performed. The stem cell frequency upon biomechanical stretching was analyzed using a limiting dilution assay. To characterize properties of AGM-HSC-derived blood cells in primary transplants, percentage chimerism and reconstitution was measured using FACS, globin transcripts were analyzed using quantitative reverse transcriptase-PCR, myeloperoxidase amount was measured using PICOKINE ELISA kit, TCR-β rearrangement was analyzed using PCR for TCR-β locus, pre-immune IG detection was analyzed using Thermo-Fisher Mouse Ig Isotyping kit, and delayed-type hypersensitivity was analyzed by injecting sheep RBC (Rockland Immunochemicals) in the footpad of pre-sensitized mice.
# T cells (Cd45.2^+, Cd3^+) and myeloid cells (Cd45.2^+, Mac1^+) were FACS sorted from the splenocytes of 16 week-primary transplanted mice. […]
# [4] = tested on: primary transplant (recipient) mice; test: Delayed-type hypersensitivity assay in primary transplant mice; format: in vivo, mouse; settings: primary transplant of treated E11.5 AGM
# Procedure: as §1
# Dnmt3b = Dnmt3b protein level in nuclear fractions of E11.5 AGM cells (EPIQUIK assay kit); format: cell-based, mouse; settings: nuclear fractions of treated E11.5 AGM cells
# Procedure: (§2) RNA-sequencing analyses were performed to measure gene expression patterns in mouse AGM treated with cyclic strain or pharmacological modulators. Using computational algorithms, hierarchical clustering was performed of differentially expressed genes as well as measured their overrepresented biological processes and pathways. Gene expression clusters of differentially expressed genes were analyzed and their mean expression level across cell populations compared. Next, Venn comparison of up- and down-genes was constructed to analyze candidate(s) important for cyclic strain- or pharmacological modulator(s)-mediated the endothelial-to-HSC transition. Furthermore, Dnmt3b and Dnmt3a protein expressions were analyzed in nuclear fractions of mouse AGM cells using EPIQUIK methyltransferase assay kits. Data are presented as mean±s.d. unless otherwise noted. Statistical analyses were performed by paired or un-paired Student's t-tests. Significance was set at P<0.05.
# (§3) Nuclear extracts from AGM explants were harvested using an EPIQUIK Nuclear Extraction Kit (Epigentek Group Inc.). Dnmt3b and Dnmt3a protein levels were analyzed using a colorimetric EPIQUIK methyltransferase Assay Kit (Epigentek Group Inc.), according to the manufacturer's instructions. Concentration of Dnmt3b and Dnmt3a is relative to 1 μg of nuclear extract proteins.
# Dnmt3a = Dnmt3a protein level in nuclear fractions of E11.5 AGM cells (EPIQUIK assay kit); format: cell-based, mouse; settings: nuclear fractions of treated E11.5 AGM cells
# Procedure: as §2, §3
structure (smiles),measurement,setting,value
"Clc1cccc(Cl)c1CSc1nnc(-c2cnccn2)s1 [Yoda1, 2-[5-[[(2,6-Dichlorophenyl)methyl]thio]-1,3,4-thiadiazol-2-yl]-pyrazine]",HSC formation (endothelial-to-HSC transition),[1]; control embryos,stimulates HSC formation
same,HSC formation (endothelial-to-HSC transition),[1]; sih-MO embryos,rescues HSC formation
same,myeloperoxidase (MPO) level of donor neutrophils,[2],reconstitute to functional myeloid cells displaying sufficient MPO levels
same,T-cell receptor β (TCRβ) locus rearrangement in donor T-cells,[3],display T-cell receptor β (TCR β) rearrangement
same,"T-cell mediated immune response (footpad, sheep RBC challenge)",[4],possess T-cell mediated immune response
same,Dnmt3b protein expression level,Dnmt3b,specifically stimulates Dnmt3b protein expression levels
same,Dnmt3a protein expression level,Dnmt3a,not Dnmt3a; also recorded: without impacting the expression of Dnmt3a

# From patent publication US20230212517A1, “METHODS FOR GENERATING HEMATOPOIETIC STEM CELLS” (The Brigham and Women's Hospital, Inc., priority 2018, published 2023)
